The source made the active and inactive calls. The calls are words filed in the database; no cut-off is given here.
Legend:
[1] = target: T1, MAP kinase-activated protein kinase 2 (Homo sapiens, UniProt P49137); experiment: Inhibition of human MK2 by [gamma33P]ATP assay
Target sequence in this assay (P49137 whole entry): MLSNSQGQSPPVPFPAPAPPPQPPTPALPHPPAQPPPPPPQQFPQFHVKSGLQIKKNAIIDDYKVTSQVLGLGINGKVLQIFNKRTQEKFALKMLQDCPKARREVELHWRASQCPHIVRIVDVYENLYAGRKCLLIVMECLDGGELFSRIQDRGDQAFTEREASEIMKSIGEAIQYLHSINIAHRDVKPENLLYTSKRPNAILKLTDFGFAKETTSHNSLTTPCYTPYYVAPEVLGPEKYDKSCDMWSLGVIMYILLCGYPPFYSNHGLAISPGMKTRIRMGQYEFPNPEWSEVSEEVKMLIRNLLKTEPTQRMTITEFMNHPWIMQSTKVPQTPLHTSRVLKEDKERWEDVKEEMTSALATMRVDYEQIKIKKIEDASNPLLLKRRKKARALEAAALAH

[2] = target: Fibroblast growth factor receptor 3 (Homo sapiens, UniProt P22607)
[3] = target: T1, MAP kinase-activated protein kinase 2; experiment: Inhibition of human MK2 at 10 uM by [gamma33P]ATP assay
Target sequence in this assay (P49137 whole entry, looked up): as the sequence (P49137 whole entry) above

[4] = target: Fibroblast growth factor receptor 1 (Homo sapiens, UniProt P11362)
Sequence of Fibroblast growth factor receptor 1 (P11362 whole entry): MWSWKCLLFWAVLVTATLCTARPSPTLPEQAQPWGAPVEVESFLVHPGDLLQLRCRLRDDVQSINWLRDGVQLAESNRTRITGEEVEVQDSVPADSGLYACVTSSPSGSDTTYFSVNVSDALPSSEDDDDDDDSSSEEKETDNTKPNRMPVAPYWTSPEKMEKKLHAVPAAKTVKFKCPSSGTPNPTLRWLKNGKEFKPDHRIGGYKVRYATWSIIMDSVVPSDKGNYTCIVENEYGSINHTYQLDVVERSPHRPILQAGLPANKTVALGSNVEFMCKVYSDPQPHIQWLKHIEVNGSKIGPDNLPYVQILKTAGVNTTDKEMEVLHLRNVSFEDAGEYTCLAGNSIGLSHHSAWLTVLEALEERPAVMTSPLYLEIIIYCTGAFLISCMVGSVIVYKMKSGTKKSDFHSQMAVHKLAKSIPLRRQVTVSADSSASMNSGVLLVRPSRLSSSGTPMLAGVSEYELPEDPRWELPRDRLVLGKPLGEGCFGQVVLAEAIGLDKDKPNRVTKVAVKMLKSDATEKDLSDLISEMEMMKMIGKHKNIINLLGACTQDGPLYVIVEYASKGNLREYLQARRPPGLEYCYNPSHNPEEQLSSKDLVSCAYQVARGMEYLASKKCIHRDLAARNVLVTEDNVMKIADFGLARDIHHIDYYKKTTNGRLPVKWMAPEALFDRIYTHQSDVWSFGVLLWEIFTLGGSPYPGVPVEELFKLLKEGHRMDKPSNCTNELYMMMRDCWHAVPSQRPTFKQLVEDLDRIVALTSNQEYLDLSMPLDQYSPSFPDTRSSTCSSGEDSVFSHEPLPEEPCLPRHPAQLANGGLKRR

[5] = target: Fibroblast growth factor receptor 2 (Homo sapiens, UniProt P21802); type: ADME
Sequence of Fibroblast growth factor receptor 2 (P21802 whole entry): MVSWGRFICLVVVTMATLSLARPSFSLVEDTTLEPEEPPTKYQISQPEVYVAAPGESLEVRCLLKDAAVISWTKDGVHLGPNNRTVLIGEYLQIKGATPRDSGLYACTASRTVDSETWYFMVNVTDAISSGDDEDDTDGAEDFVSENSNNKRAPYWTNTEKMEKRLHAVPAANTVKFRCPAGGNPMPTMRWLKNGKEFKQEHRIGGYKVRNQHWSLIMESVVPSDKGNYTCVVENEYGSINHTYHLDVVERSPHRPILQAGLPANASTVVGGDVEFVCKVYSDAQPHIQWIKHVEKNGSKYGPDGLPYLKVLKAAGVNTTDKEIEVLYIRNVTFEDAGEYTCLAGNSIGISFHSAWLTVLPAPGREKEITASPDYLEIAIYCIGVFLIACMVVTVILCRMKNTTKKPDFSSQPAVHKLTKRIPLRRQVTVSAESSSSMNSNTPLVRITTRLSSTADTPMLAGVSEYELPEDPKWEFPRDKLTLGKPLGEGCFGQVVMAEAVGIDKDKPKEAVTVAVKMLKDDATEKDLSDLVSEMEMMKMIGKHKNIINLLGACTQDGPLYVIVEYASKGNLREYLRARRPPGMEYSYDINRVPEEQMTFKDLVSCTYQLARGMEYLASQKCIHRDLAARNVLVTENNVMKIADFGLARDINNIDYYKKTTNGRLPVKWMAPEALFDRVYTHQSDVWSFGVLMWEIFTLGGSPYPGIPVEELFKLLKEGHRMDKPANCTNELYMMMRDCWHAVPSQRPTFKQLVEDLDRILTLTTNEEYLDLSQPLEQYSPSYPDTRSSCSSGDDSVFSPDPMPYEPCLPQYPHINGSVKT

[6] = target: T2, Fibroblast growth factor receptor 4 (Homo sapiens, UniProt P22455)
T2 sequence (P22455 whole entry): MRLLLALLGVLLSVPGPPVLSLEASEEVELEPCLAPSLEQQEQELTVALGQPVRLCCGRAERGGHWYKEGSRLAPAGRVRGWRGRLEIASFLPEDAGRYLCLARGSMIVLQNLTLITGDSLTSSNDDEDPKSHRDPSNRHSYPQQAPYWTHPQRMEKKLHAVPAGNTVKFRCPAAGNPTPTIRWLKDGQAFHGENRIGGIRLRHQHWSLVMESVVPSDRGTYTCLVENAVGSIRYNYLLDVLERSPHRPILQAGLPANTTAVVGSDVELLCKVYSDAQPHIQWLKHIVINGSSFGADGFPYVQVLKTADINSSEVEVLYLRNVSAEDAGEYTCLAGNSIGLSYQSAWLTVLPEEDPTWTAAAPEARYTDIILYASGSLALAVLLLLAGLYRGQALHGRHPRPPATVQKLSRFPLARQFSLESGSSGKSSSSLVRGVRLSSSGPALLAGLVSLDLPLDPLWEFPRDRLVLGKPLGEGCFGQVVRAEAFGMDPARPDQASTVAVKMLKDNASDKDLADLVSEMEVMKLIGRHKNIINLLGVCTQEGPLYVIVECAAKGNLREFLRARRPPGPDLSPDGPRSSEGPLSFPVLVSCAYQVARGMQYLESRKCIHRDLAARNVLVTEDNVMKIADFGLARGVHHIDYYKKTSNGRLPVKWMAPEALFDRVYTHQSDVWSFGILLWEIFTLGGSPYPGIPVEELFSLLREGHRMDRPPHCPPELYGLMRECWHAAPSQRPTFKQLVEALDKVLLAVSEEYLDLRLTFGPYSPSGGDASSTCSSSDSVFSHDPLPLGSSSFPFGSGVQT

[7] = target: Fibroblast growth factor receptor 4 (Homo sapiens, UniProt P22455, C477A)
Sequence of Fibroblast growth factor receptor 4 (Homo sapiens, UniProt P22455, C477A) (P22455 22-802 C477A limits assumed): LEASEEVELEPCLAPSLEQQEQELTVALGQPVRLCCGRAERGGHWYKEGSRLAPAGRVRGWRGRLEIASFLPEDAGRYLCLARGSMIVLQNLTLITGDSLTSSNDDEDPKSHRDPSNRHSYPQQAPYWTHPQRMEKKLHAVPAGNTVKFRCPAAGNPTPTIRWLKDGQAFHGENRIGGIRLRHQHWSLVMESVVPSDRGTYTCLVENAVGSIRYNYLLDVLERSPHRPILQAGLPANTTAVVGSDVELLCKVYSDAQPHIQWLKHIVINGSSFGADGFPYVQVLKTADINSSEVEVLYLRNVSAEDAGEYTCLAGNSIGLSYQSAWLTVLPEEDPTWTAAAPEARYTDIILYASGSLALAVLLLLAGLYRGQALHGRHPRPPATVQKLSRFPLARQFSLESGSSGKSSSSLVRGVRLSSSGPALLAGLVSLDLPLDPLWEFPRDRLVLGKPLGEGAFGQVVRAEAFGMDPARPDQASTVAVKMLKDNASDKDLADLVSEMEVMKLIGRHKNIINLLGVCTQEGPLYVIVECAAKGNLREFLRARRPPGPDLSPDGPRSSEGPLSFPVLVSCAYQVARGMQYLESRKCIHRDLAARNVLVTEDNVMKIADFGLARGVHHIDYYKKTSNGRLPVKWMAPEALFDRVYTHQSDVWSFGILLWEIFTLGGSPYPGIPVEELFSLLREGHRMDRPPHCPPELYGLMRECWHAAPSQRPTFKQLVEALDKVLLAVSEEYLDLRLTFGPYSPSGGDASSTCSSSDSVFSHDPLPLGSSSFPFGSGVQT

[8] = target: Fibroblast growth factor receptor 4 (Homo sapiens, UniProt P22455, C552A)
Sequence of Fibroblast growth factor receptor 4 (Homo sapiens, UniProt P22455, C552A) (P22455 22-802 C552A limits assumed): as the sequence (P22455 22-802 C477A limits assumed) above, with A456C, C531A counted along it

[9] = target: T2, Fibroblast growth factor receptor 4; remark: listed apart in the source

Sequence of Fibroblast growth factor receptor 3 (P22607 whole entry): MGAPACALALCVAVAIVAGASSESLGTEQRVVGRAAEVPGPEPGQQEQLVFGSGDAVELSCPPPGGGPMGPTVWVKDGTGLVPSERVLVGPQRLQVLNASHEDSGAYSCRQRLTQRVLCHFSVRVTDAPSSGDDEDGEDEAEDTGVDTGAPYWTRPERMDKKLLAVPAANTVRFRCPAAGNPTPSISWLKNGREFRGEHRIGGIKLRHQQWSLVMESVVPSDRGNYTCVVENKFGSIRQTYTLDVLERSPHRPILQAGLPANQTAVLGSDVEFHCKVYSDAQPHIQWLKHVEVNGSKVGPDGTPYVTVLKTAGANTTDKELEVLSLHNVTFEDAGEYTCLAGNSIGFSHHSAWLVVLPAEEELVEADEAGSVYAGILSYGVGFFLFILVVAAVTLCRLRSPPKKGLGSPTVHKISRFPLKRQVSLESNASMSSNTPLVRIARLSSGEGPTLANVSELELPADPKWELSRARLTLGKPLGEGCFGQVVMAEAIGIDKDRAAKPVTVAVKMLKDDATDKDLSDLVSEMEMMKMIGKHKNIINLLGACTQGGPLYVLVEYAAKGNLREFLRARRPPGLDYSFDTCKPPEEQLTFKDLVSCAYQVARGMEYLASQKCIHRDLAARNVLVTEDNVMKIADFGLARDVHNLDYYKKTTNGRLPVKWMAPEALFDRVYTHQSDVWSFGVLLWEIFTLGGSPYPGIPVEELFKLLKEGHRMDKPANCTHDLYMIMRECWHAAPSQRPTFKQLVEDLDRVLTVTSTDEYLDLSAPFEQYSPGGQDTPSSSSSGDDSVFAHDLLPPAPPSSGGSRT

IC50 [1] [µM] | IC50 [2] [µM] | inhibition [3] | IC50 [4] [µM] | IC50 [5] [µM] | IC50 [6] [µM] | IC50 [7] [µM] | IC50 [8] [µM] | IC50 [9] [µM] | Structure (SMILES)
– | 3.5 | – | – | 0.363 | – | – | – | – | CC(C)COc1cc(N2CCC(N(C)C)CC2)ccc1Nc1ncc(C#N)c(N[C@H]2[C@@H](C(N)=O)[C@@H]3C=C[C@H]2C3)n1
– | > 10 | – | > 10 | > 10 | – | – | – | – | O=[N+]([O-])c1ccc(Cl)nc1Nc1ncc(C(F)(F)F)cc1Cl
– | – | – | – | – | > 10 | > 10 | > 10 | – | O=C(Nc1ccc(C(F)(F)F)cn1)c1cccc2cccnc12
– | 0.78 | – | 3.2 | 1.7 | – | – | – | – | C=CC(=O)Nc1cccc(C)c1Nc1ncc2cc(-c3c(Cl)c(OC)cc(OC)c3Cl)ccc2n1

The remaining lines, values behind:

Structure (SMILES) | IC50 [1] [µM] | IC50 [2] [µM] | inhibition [3] | IC50 [4] [µM] | IC50 [5] [µM] | IC50 [6] [µM] | IC50 [7] [µM] | IC50 [8] [µM] | IC50 [9] [µM]
O=Cc1ccc2cccc(C(=O)Nc3ccc(C(F)(F)F)cn3)c2n1 | 2.3 | > 10 | Active | > 10 | > 10 | – | – | – | –
O=Cc1ccc2cccc(C(=O)Nc3ccc(C(F)(F)F)cc3)c2n1 | – | – | – | – | – | > 10 | > 10 | > 10 | –
CC(C)Oc1cc(N2CCC(N3CCN(C)CC3)CC2)ccc1Nc1ncc(Cl)c(Nc2ccccc2S(=O)(=O)C(C)C)n1 | – | 8 | – | 6.35 | 4.43 | – | – | – | 0.029

Source: ChEMBL document CHEMBL4261540, “Approaches to selective fibroblast growth factor receptor 4 inhibition through targeting the ATP-pocket middle-hinge region” (Medchemcomm, 2017)
